Test results: patent publication US20250296959A1, “B7-H3 TARGETING PEPTIDES AND CONSTRUCTS THEREOF” (Mariana Oncology Inc., priority 2024, published 2025)
Starred links: 1 amine or outer side, 2 acyl side, 3 side chain; linkers in the order of their positions; H or OH if unused. Positions of bridges follow the written chain, without caps; N, C: chain ends. Non-standard residues stand in square brackets, D forms with d. Residues, ends and D or L forms follow the SMILES beside them. Groups on a side chain read outwards from the residue. ξ: configuration not given here. *: point of attachment. X7 = O=C(O)CN1CCN(CC(=O)O)CCN(CC(=O)NCCOCCOCCOCCOCCOCCOCCOCCOCC(=O)*)CCN(CC(=O)O)CC1; Ala(piperidin-4-yl) = O=C([C@H](CC1CCN([*:3])CC1)N[*:1])[*:2]; Phe(3-CH2NH2) = O=C([C@H](Cc1cccc(CN[*:3])c1)N[*:1])[*:2]; DOTA = O=C(O)CN1CCN(CC(=O)O)CCN(CC(=O)*)CCN(CC(=O)O)CC1; Trp(5-F) = N[C@@H](Cc1c[nH]c2ccc(F)cc12)C(=O)O; Pro(trans-4-F) = O=C(O)[C@@H]1C[C@@H](F)CN1; Phe(4-F) = N[C@@H](Cc1ccc(F)cc1)C(=O)O; γGlu = O=C(O)[C@H](CCC(=O)[*:2])N[*:1]; 1Nal = N[C@@H](Cc1cccc2ccccc12)C(=O)O; Ala(4-THP) = N[C@@H](CC1CCOCC1)C(=O)O; 4Pal = N[C@@H](Cc1ccncc1)C(=O)O; Cha = N[C@@H](CC1CCCCC1)C(=O)O; Tle = CC(C)(C)[C@H](N)C(=O)O; hLeu = CC(C)CC[C@H](N)C(=O)O; Pip = O=C(O)[C@@H]1CCCCN1; ξF = NC(Cc1ccccc1)C(=O)O

Molecular target: T1, human 4lg B7-H3 (Homo sapiens, UniProt Q5ZPR3)
T1 sequence (Q5ZPR3 29-534): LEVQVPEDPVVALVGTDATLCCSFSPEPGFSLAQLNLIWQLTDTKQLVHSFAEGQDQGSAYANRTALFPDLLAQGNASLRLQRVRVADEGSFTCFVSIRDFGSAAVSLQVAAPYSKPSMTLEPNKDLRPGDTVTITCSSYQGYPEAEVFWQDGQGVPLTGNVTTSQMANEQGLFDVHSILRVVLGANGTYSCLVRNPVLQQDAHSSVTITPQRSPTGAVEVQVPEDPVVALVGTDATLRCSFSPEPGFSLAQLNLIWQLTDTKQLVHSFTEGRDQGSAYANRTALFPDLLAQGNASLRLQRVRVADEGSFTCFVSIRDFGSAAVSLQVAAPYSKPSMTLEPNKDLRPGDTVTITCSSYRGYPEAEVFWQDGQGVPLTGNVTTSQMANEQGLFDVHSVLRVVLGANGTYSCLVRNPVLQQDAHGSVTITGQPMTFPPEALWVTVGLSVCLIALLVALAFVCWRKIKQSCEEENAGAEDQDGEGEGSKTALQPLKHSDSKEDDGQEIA
Test: Affinity determination by surface plasmon resonance (SPR) to 4Ig B7-H3
Conditions: SPR KD—25° C., 4Ig B7-H3; 25° C. flow cell temperature

With CC(=O)N[C@@H](CCC(C)C)C(=O)N[C@@H](Cc1ccc(O)cc1)C(=O)N[C@H]1CSSC[C@@H](C(=O)N[C@@H](Cc2cccc3ccccc23)C(=O)N[C@@H](Cc2ccccc2)C(=O)N2C[C@H](F)C[C@H]2C(=O)O)NC(=O)[C@H](Cc2ccc(O)cc2)NC(=O)[C@H](C(C)C)NC(=O)[C@H](CC(=O)O)NC(=O)[C@H](Cc2ccncc2)NC(=O)[C@H](CCCCNC(=O)CN2CCN(CC(=O)O)CCN(CC(=O)O)CCN(CC(=O)O)CC2)NC(=O)CNC(=O)[C@H](C(C)(C)C)NC1=O [compound 264, Ac-hLeu-Y-C-Tbg-G-Lys(DOTA)-4PyA-D-V-Y-C-1Nal-F-trans4FPro-CONH2] (Ac-[hLeu]YC[Tle]GK(DOTA)[4Pal]DVYC[1Nal]F[Pro(trans-4-F)]-OH; disulfide 3-11) the Kd was 1 to 10 nM.
Molecule CC(=O)N[C@@H](CCC(C)C)C(=O)N[C@@H](Cc1ccc(O)cc1)C(=O)N[C@H]1CSSC[C@@H](C(=O)N[C@@H](Cc2cccc3ccccc23)C(=O)N[C@@H](Cc2ccccc2)C(=O)N2CCCC[C@H]2C(=O)O)NC(=O)[C@H](Cc2ccc(O)cc2)NC(=O)[C@H](C(C)C)NC(=O)[C@H](CC(=O)O)NC(=O)[C@H](Cc2ccncc2)NC(=O)[C@H](CCCCNC(=O)CN2CCN(CC(=O)O)CCN(CC(=O)O)CCN(CC(=O)O)CC2)NC(=O)CNC(=O)[C@H](C(C)(C)C)NC1=O [compound 265, Ac-hLeu-Y-C-Tbg-G-Lys(DOTA)-4PyA-D-V-Y-C-1Nal-F-Pip acid-CONH2] (Ac-[hLeu]YC[Tle]GK(DOTA)[4Pal]DVYC[1Nal]F[Pip]-OH; disulfide 3-11) has a Kd of 10 to 100 nM.
With CC(=O)N[C@@H](CCC(C)C)C(=O)N[C@@H](Cc1ccc(O)cc1)C(=O)N[C@H]1CSSC[C@@H](C(=O)N[C@@H](Cc2c[nH]c3ccc(F)cc23)C(=O)N[C@@H](Cc2ccccc2)C(=O)N2CCC[C@H]2C(=O)N[C@H](CCCCNC(=O)CN2CCN(CC(=O)O)CCN(CC(=O)O)CCN(CC(=O)O)CC2)C(N)=O)NC(=O)[C@H](Cc2ccc(O)cc2)NC(=O)[C@H](C(C)C)NC(=O)[C@H](CC(=O)O)NC(=O)[C@H](CC2CCOCC2)NC(=O)[C@H](CCCCN)NC(=O)CNC(=O)[C@H](C(C)C)NC1=O [compound 271, Ac-hLeu-Y-C-V-G-K-ThpA-D-V-Y-C-5FW-F-Pro-dLys(DOTA)-CONH2] (Ac-[hLeu]YCVGK[Ala(4-THP)]DVYC[Trp(5-F)]FP[dK](DOTA)-NH2; disulfide 3-11) the Kd was < 1 nM.
For CC(C)CC[C@H](NC(=O)CC[C@H](NC(=O)CC[C@H](NC(=O)CC[C@H](NC(=O)CN1CCN(CC(=O)O)CCN(CC(=O)O)CCN(CC(=O)O)CC1)C(=O)O)C(=O)O)C(=O)O)C(=O)N[C@@H](Cc1ccc(F)cc1)C(=O)N[C@H]1CSSC[C@@H](C(=O)N[C@@H](Cc2cccc3ccccc23)C(=O)N[C@@H](Cc2ccccc2)C(=O)N2CCC[C@H]2C(N)=O)NC(=O)[C@H](Cc2ccc(O)cc2)NC(=O)[C@H](C(C)C)NC(=O)[C@H](CC(=O)O)NC(=O)[C@H](CC2CCOCC2)NC(=O)[C@H](CC2CCNCC2)NC(=O)CNC(=O)[C@H](C(C)(C)C)NC1=O [compound 272, DOTA-gE-gE-gE-hLeu-4FPhe-C-Tbg-G-PipAla-ThpA-D-V-Y-C-1Nal-F-Pro-CONH2] ({DOTA-γGlu-γGlu-γGlu}-[hLeu][Phe(4-F)]C[Tle]G[Ala(piperidin-4-yl)][Ala(4-THP)]DVYC[1Nal]FP-NH2; disulfide 3-11), the Kd was 100 to 300 nM.
With CC(=O)N[C@@H](CCC(C)C)C(=O)N[C@@H](Cc1ccc(O)cc1)C(=O)N[C@H]1CSSC[C@@H](C(=O)N[C@@H](Cc2c[nH]c3ccc(F)cc23)C(=O)N[C@@H](Cc2ccccc2)C(=O)N2CCC[C@H]2C(N)=O)NC(=O)[C@H](Cc2ccc(O)cc2)NC(=O)[C@H](C(C)C)NC(=O)[C@H](CC(=O)O)NC(=O)[C@H](CC2CCOCC2)NC(=O)[C@H](CCCCNC(=O)CN2CCN(CC(=O)O)CCN(CC(=O)O)CCN(CC(=O)O)CC2)NC(=O)CNC(=O)[C@H](C(C)(C)C)NC1=O [compound 273, Ac-hLeu-Y-C-Tbg-G-Lys(DOTA)-ThpA-D-V-Y-C-5FW-F-Pro-CONH2] (Ac-[hLeu]YC[Tle]GK(DOTA)[Ala(4-THP)]DVYC[Trp(5-F)]FP-NH2; disulfide 3-11) the Kd was 10 to 100 nM.
With CC(=O)N[C@@H](CCC(C)C)C(=O)N[C@@H](Cc1ccc(O)cc1)C(=O)N[C@H]1CSSC[C@@H](C(=O)N[C@@H](Cc2cccc3ccccc23)C(=O)N[C@@H](Cc2ccccc2)C(=O)N2CCC[C@H]2C(=O)N[C@H](CCCCNC(=O)CC[C@H](NC(=O)CN2CCN(CC(=O)O)CCN(CC(=O)O)CCN(CC(=O)O)CC2)C(=O)O)C(N)=O)NC(=O)[C@H](Cc2ccc(O)cc2)NC(=O)[C@H](C(C)C)NC(=O)[C@H](CC(=O)O)NC(=O)[C@H](CC2CCOCC2)NC(=O)[C@H](CCCCN)NC(=O)CNC(=O)[C@H](C(C)(C)C)NC1=O [compound 274, Ac-hLeu-Y-C-Tbg-G-K-ThpA-D-V-Y-C-1Nal-F-Pro-dLys(gE-DOTA)-CONH2] (Ac-[hLeu]YC[Tle]GK[Ala(4-THP)]DVYC[1Nal]FP[dK]([γGlu-DOTA])-NH2; disulfide 3-11) the Kd was < 1 nM.
CC(=O)N[C@@H](CCC(C)C)C(=O)N[C@@H](Cc1ccc(O)cc1)C(=O)N[C@H]1CSSC[C@@H](C(=O)N[C@@H](Cc2cccc3ccccc23)C(=O)N[C@@H](Cc2ccccc2)C(=O)N2CCC[C@H]2C(=O)N[C@H](CCCCNC(=O)CC[C@H](NC(=O)CC[C@H](NC(=O)CN2CCN(CC(=O)O)CCN(CC(=O)O)CCN(CC(=O)O)CC2)C(=O)O)C(=O)O)C(N)=O)NC(=O)[C@H](Cc2ccc(O)cc2)NC(=O)[C@H](C(C)C)NC(=O)[C@H](CC(=O)O)NC(=O)[C@H](CC2CCOCC2)NC(=O)[C@H](CCCCN)NC(=O)CNC(=O)[C@H](C(C)(C)C)NC1=O [compound 275, Ac-hLeu-Y-C-Tbg-G-K-ThpA-D-V-Y-C-1Nal-F-Pro-dLys(gE-gE-DOTA)-CONH2] (Ac-[hLeu]YC[Tle]GK[Ala(4-THP)]DVYC[1Nal]FP[dK]([γGlu-γGlu-DOTA])-NH2; disulfide 3-11) showed a Kd of 1 to 10 nM.
CC(=O)N[C@@H](CCC(C)C)C(=O)N[C@@H](Cc1ccc(O)cc1)C(=O)N[C@H]1CSSC[C@@H](C(=O)N[C@@H](Cc2cccc3ccccc23)C(=O)NC(Cc2ccccc2)C(=O)N2CCC[C@H]2C(=O)N[C@H](CCCCNC(=O)CC[C@H](NC(=O)CC[C@H](NC(=O)CC[C@H](NC(=O)CN2CCN(CC(=O)O)CCN(CC(=O)O)CCN(CC(=O)O)CC2)C(=O)O)C(=O)O)C(=O)O)C(N)=O)NC(=O)[C@H](Cc2ccc(O)cc2)NC(=O)[C@H](C(C)C)NC(=O)[C@H](CC(=O)O)NC(=O)[C@H](CC2CCOCC2)NC(=O)[C@H](CCCCN)NC(=O)CNC(=O)[C@H](C(C)(C)C)NC1=O (stereo partly drawn) [compound 276, Ac-hLeu-Y-C-Tbg-G-K-ThpA-D-V-Y-C-1Nal-F-Pro-dLys(gE-gE-gE-DOTA)-CONH2] (Ac-[hLeu]YC[Tle]GK[Ala(4-THP)]DVYC[1Nal][ξF]P[dK]([γGlu-γGlu-γGlu-DOTA])-NH2; disulfide 3-11) was tested, and the Kd was 1 to 10 nM.
Work on CC(=O)N[C@@H](CCC(C)C)C(=O)N[C@@H](Cc1ccc(O)cc1)C(=O)N[C@H]1CSSC[C@@H](C(=O)N[C@@H](Cc2cccc3ccccc23)C(=O)NC(Cc2ccccc2)C(=O)N2CCC[C@H]2C(=O)N[C@H](CCCCNC(=O)CC[C@H](NC(=O)CN2CCN(CC(=O)O)CCN(CC(=O)O)CCN(CC(=O)O)CC2)C(=O)O)C(N)=O)NC(=O)[C@H](Cc2ccc(O)cc2)NC(=O)[C@H](C(C)C)NC(=O)[C@H](CC(=O)O)NC(=O)[C@H](CC2CCCCC2)NC(=O)[C@H](CC2CCNCC2)NC(=O)CNC(=O)[C@H](C(C)(C)C)NC1=O (stereo partly drawn) [compound 277, Ac-hLeu-Y-C-Tbg-G-PipAla-CHA-D-V-Y-C-1Nal-F-Pro-dLys(gE-DOTA)-CONH2] (Ac-[hLeu]YC[Tle]G[Ala(piperidin-4-yl)][Cha]DVYC[1Nal][ξF]P[dK]([γGlu-DOTA])-NH2; disulfide 3-11) yielded a Kd of 1 to 10 nM.
CC(=O)N[C@@H](CCC(C)C)C(=O)N[C@@H](Cc1ccc(O)cc1)C(=O)N[C@H]1CSSC[C@@H](C(=O)N[C@@H](Cc2cccc3ccccc23)C(=O)N[C@@H](Cc2ccccc2)C(=O)N2CCC[C@H]2C(=O)N[C@H](CCCCNC(=O)CC[C@H](NC(=O)CC[C@H](NC(=O)CC[C@H](NC(=O)CN2CCN(CC(=O)O)CCN(CC(=O)O)CCN(CC(=O)O)CC2)C(=O)O)C(=O)O)C(=O)O)C(N)=O)NC(=O)[C@H](Cc2ccc(O)cc2)NC(=O)[C@H](C(C)C)NC(=O)[C@H](CC(=O)O)NC(=O)[C@H](CC2CCCCC2)NC(=O)[C@H](CC2CCNCC2)NC(=O)CNC(=O)[C@H](C(C)(C)C)NC1=O [compound 278, Ac-hLeu-Y-C-Tbg-G-PipAla-CHA-D-V-Y-C-1Nal-F-Pro-dLys(gE-gE-DOTA)-CONH2] (Ac-[hLeu]YC[Tle]G[Ala(piperidin-4-yl)][Cha]DVYC[1Nal]FP[dK]([γGlu-γGlu-γGlu-DOTA])-NH2; disulfide 3-11) gave a Kd of 1 to 10 nM.
In the case of CC(=O)N[C@@H](CCC(C)C)C(=O)N[C@@H](Cc1ccc(O)cc1)C(=O)N[C@H]1CSSC[C@@H](C(=O)N[C@@H](Cc2cccc3ccccc23)C(=O)N[C@@H](Cc2ccccc2)C(=O)N2CCC[C@H]2C(N)=O)NC(=O)[C@H](Cc2ccc(O)cc2)NC(=O)[C@H](C(C)C)NC(=O)[C@H](CC(=O)O)NC(=O)[C@H](Cc2cccc(CNC(=O)COCCOCCOCCOCCOCCOCCOCCOCCNC(=O)CN3CCN(CC(=O)O)CCN(CC(=O)O)CCN(CC(=O)O)CC3)c2)NC(=O)[C@H](CCCCN)NC(=O)CNC(=O)[C@H](C(C)(C)C)NC1=O [compound 279, Ac-hLeu-Y-C-Tbg-G-K-MAF(PEG8-DOTA)-D-V-Y-C-1Nal-F-Pro-CONH2] (Ac-[hLeu]YC[Tle]GK[Phe(3-CH2NH2)](X7)DVYC[1Nal]FP-NH2; disulfide 3-11), the Kd is reported as 1 to 10 nM.
